Laboratory results: patent US20240294551A1 (AMGEN INC., priority 2022, published 2024)
pIC50: −log10 of the molar value.

Tests used:
[1] = molecular target: His-tagged KRAS G12D protein (Homo sapiens (Human), UniProt P01116, G12D); assay: KRAS G12D TR-FRET Assay; format: binding; conditions: read-out: KRAS G12D Binding IC50
Method in brief: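 Each incubation ran at room temperature: enzyme with compound for 30 minutes, peptide for one hour, and detection reagents (0.4 nM europium anti-6×His, 5 nM streptavidin-d2) for one hour more. Protein and peptide stocks were each diluted to 20 nM before addition.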

[2] = system: p-ERK in PANC 04.03 tumor-bearing mice; assay: Tumor Pharmacodynamic Assay (p-ERK inhibition in PANC 04.03 tumors); format: in vivo; conditions: Mus musculus; PANC 04.03 tumor-bearing female athymic nude mice; single oral dose 100 mg/kg; tumors harvested 2 hr later; relative to vehicle group
Experimental: Tumor Pharmacodynamic Assays
Inhibitor pharmacodynamic effects were assessed in PANC 04.03 tumor-bearing mice. PANC 04.03 tumor cells (5.0E+06 cells) were injected subcutaneously into the flank of female athymic nude mice in a mixture with Matrigel (BD Bioscience). Mice received a single oral dose of either vehicle or inhibitor (100 mg/kg) when the average tumor size reached -300-600 mm^3 (n=3/group) and harvested 2 hours later. Tumor samples were collected, snap frozen, and processed for analysis by pulverizing with a cryoPREP® Dry Impactor (Covaris). Pulverized samples were resuspended in RIPA lysis buffer containing protease and phosphatase inhibitors and homogenized. Cleared lysates were analyzed using phospho-ERK1/2 and total ERK1/2 whole cell lysate kits (Meso Scale Discovery) according to the manufacturer's protocol. Phospho-ERK1/2 signal was normalized to total ERK1/2 signal for a given sample, and percent inhibition of p-ERK was calculated relative to the vehicle group.

[3] = molecular target: GDP-bound KRAS protein (aa 1-169), containing both G12D and C118A amino acid substitutions (Homo sapiens (Human), UniProt P01116, C118A/G12D); assay: KRAS G12D Coupled Nucleotide Exchange Assay; format: biochemical; conditions: read-out: KRAS G12D Coupled Exchange IC50
AsPC-1 cells = assay: AsPC-1 CTG Assay (CellTiter-Glo cell viability); format: cell-based, human; conditions: Homo sapiens, ASPC1, 72 h, AsPC-1, 72 h; first value of the cell; read-out: G12D/C/V Cell Proliferation CTG (72 h) AsPC-1
Method in brief: (§1)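 IC50 values derive from 4-parameter logistic fits of CellTiter-Glo luminescence, expressed relative to DMSO. Compound dilution series were applied to overnight-seeded AsPC-1 or SW620 cells (RPMI 1640, 10% FBS) for 72 h at 37 °C, 5% CO2.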

[4] = system: Phosphorylation of ERK1/2 in AsPC-1 cells; assay: Phospho-ERK1/2 MSD Assay; format: cell-based, human; conditions: Homo sapiens, ASPC1, 2 h, read-out: 2 h p-ERK (AsPC-1 cells), IC50
Method in brief: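 Read-out: MSD electrochemiluminescent detection of phosphorylated ERK1/2 in whole-cell lysates, fitted to a 4-parameter logistic curve for IC50. Prior to lysis, AsPC-1 cells (25,000 per well) received a 2 h compound dose-response at 37 °C.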

MIA PaCa-2 cells = assay: MIA PaCa-2 CTG Assay (CellTiter-Glo cell viability); format: cell-based, human; conditions: Homo sapiens; Mia PaCa-2, 72 h; second value of the cell; read-out: G12D/C/V Cell Proliferation CTG (72 h) Mia PaCa-2
Method in brief: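 IC50 values come from a 4-parameter logistic fit of CellTiter-Glo luminescence, normalized to DMSO control, after 72 h compound exposure at 37° C, 5% CO2. Cells grew in RPMI 1640 plus 10% FBS and were seeded at 1.67E+04 cells/mL one night before dosing.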

SW620 cells = assay: SW620 CTG Assay (CellTiter-Glo cell viability); format: cell-based, human; conditions: Homo sapiens, SW-620; SW620, 72 h; third value of the cell; read-out: G12D/C/V Cell Proliferation CTG (72 h) SW620
Method in brief: as §1

Sequence of GDP-bound KRAS protein (aa 1-169), containing both G12D and C118A amino acid substitutions (P01116 other isoform, or with tags, fused parts or gaps G12D/C118A): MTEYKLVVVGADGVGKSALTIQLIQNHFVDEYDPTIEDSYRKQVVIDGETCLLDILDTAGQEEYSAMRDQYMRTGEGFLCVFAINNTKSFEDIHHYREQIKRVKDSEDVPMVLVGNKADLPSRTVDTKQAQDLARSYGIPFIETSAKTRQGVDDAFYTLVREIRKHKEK
Sequence of His-tagged KRAS G12D protein (P01116 other isoform, or with tags, fused parts or gaps G12D): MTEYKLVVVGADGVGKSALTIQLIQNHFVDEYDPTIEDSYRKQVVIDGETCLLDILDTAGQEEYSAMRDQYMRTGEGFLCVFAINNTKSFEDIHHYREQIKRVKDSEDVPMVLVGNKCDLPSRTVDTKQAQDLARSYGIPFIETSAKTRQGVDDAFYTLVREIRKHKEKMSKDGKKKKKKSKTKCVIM

| pIC50 [1] | pIC50 [3] | pIC50 (AsPC-1 cells) | pIC50 [4] | pIC50 (MIA PaCa-2 cells) | pIC50 (SW620 cells) | IC50 [3] [nM] | Compound | inhibition in vivo at 100 mg/kg [2] [%] |
| --- | --- | --- | --- | --- | --- | --- | --- | --- |
| 8.30 | 8.52 | 7.17 | 7.79 | 7.05 | – | – | C[C@@]12CCCCN(C1)c1nc(OC[C@@]34CCCN3C[C@H](F)C4)nc3c(F)c(ncc13)-c1c(c(Cl)cc3[nH]ncc13)CCCCC(=O)N2 [Example 166, (26R)-18-chloro-32-fluoro-4-(((2R,7aS)-2-fluorotetrahydro-1H-pyrrolo[1,2-a]pyrrol-7a(5H)-yl)methoxy)-26-methyl-1,3,5,9,14,15,25-heptaazahexacyclo [24.4.1.1~6,10~.0~2,7~.0~11,19~.0~12,16~]dotriaconta-2,4,6,8,10(32),11,13,16,18-nonaen-24-one] | 63 |
| 8.40 | 8.70 | 8.30 | 8.35 | 8.40 | 8.40 | – | Cc1cc2[nH]ncc2c2c1CCCOC(=O)O[C@]1(C)COCCN(C1)c1nc(OC[C@@]34CCCN3C[C@H](F)C4)nc3c(F)c-2ncc13 [Example 190, (26S)-32-fluoro-4-(((2R,7aS)-2-fluorotetrahydro-1H-pyrrolo[1,2-a]pyrrol-7a(5H)-yl)methoxy)-18,26-dimethyl-23,25,28-trioxa-1,3,5,9,14,15-hexaazahexacyclo[24.4.1.1~6,10~.0~2,7~.0~11,19~.0~12,16~]dotriaconta-2,4,6,8,10(32),11,13,16,18-nonaen-24-one] | 86 |
| 8.40 | – | 7.10 | 8.28 | 7.62 | 7.70 | 3 | CN1CCC[C@H]1COc1nc2c3cnc(c(F)c3n1)-c1c(c(Cl)cc3[nH]ncc13)CCOC(=O)O[C@H]1C[C@]3(CCCN2C3)C1 (single isomer, unassigned) [Example 212] | 85 |
| 8.30 | 8.52 | 8.52 | 8.41 | – | 8.52 | – | C[C@@]12COCCN(C1)c1nc(OCC34CCCN3CCC4)nc3c(F)c(ncc13)-c1c(c(Cl)cc3[nH]ncc13)CCCOC(=O)O2 [Example 209, (26S)-18-chloro-32-fluoro-26-methyl-4-(tetrahydro-1H-pyrrolo[1,2-a]pyrrol-7a(5H)-ylmethoxy)-23,25,28-trioxa-1,3,5,9,14,15-hexaazahexacyclo[24.4.1.1~6,10~.0~2,7~.0~11,19~.0~12,16~]dotriaconta-2,4,6,8,10(32),11,13,16,18-nonaen-24-one] | 63 |
| 8.40 | 8.70 | 7.89 | 8.11 | 8.15 | – | – | O=C1OCCc2c(Cl)cc3[nH]ncc3c2-c2ncc3c(nc(OC[C@@]45CCCN4C[C@H](F)C5)nc3c2F)N2CCO[C@]3(C2)C[C@H](C3)O1 [Example 248, (1R,3R)-10-chloro-32-fluoro-24-(((2R,7aS)-2-fluorotetrahydro-1H-pyrrolo[1,2-a]pyrrol-7a(5H)-yl)methoxy)-4,6,30-trioxa-13,14,19,23,25,27-hexaazaheptacyclo[25.3.1.1~1,3~.1~18,22~.0~9,17~.0~12,16~.0~21,26~]tritriaconta-9,11,14,16,18(32),19,21,23,25-nonaen-5-one] | 85 |
| 7.82 | 7.82 | – | 6.59 | – | – | – | C[C@@]12CCCN(C1)c1nc(OC[C@@]34CCCN3C[C@H](F)C4)nc3c(F)c(ncc13)-c1cccc3ccc(F)c(c13)CCCC(=O)N2 [Example 7, (15R)-22,31-Difluoro-8-(((2R,7aS)-2-fluorotetrahydro-1H-pyrrolo[1,2-a]pyrrol-7a(5H)-yl)methoxy)-15-methyl-3,7,9,11,16-pentaazahexacyclo[19.7.1.1˜2,6˜.1˜11,15˜.0˜5,10˜.0˜25,29˜]hentriaconta-1(28),2(31),3,5,7,9,21,23,25(29),26-decaen-17-one bis(2,2,2-trifluoroacetate)] | 21 |
| 8.22 | 8.52 | 7.09 | 7.92 | 7.54 | 7.49 | – | Cc1c2ncc3c(nc(OC[C@@]45CCCN4C[C@H](F)C5)nc13)N1CCC[C@](C)(C1)NC(=O)CCCc1c(F)ccc3cc(O)cc-2c13 [Example 18, (15R)-22-Fluoro-8-(((2R,7aS)-2-fluorotetrahydro-1H-pyrrolo[1,2-a]pyrrol-7a(5H)-yl)methoxy)-27-hydroxy-15,31-dimethyl-3,7,9,11,16-pentaazahexacyclo[19.7.1.1˜2,6˜.1˜11,15˜.0˜5,10˜.0˜25,29˜]hentriaconta-1(28),2(31),3,5,7,9,21,23,25(29),26-decaen-17-one] | – |
| 8.40 | 8.52 | 8.70 | 9.00 | – | 9.00 | – | O[C@@H]1c2ncc(o2)CCc2c(Cl)cc3[nH]ncc3c2-c2ncc3c(nc(OC[C@@]45CCCN4C[C@H](F)C5)nc3c2F)N2CCC[C@@H]1C2 [Example 233] | 23 |
| 8.52 | 9.00 | 7.22 | 8.00 | 7.22 | 7.56 | – | O=C1OCCCc2c(Cl)cc3[nH]ncc3c2-c2ncc3c(nc(OC[C@@]45CCCN4C[C@H](F)C5)nc3c2F)N2CCC[C@H](C2)O1 [Example 115] | – |
| 8.22 | 8.52 | – | 7.73 | 8.00 | 8.10 | – | CN1CCC[C@H]1COc1nc2c3cnc(c(F)c3n1)-c1c(c(Cl)cc3[nH]ncc13)CCCOC(=O)O[C@]1(C)COCCN2C1 [Example 181, (26S)-18-chloro-32-fluoro-26-methyl-4-(((2S)-1-methyl-2-pyrrolidinyl)methoxy)-23,25,28-trioxa-1,3,5,9,14,15-hexaazahexacyclo[24.4.1.1~6,10~.0~2,7~.0~11,19~.0~12,16~]dotriaconta-2,4,6,8,10(32),11,13,16,18-nonaen-24-one] | 65 |

| Compound | pIC50 [1] | pIC50 [3] | pIC50 (AsPC-1 cells) | pIC50 [4] | pIC50 (MIA PaCa-2 cells) | pIC50 (SW620 cells) | IC50 [3] [nM] | inhibition in vivo at 100 mg/kg [2] [%] |
| --- | --- | --- | --- | --- | --- | --- | --- | --- |
| C[C@@]12CCCN(C1)c1nc(OC[C@@]34CCCN3C[C@H](F)C4)nc3c(F)c(c(F)cc13)-c1cc(O)cc3ccc(F)c(c13)CCCC(=O)N2 [Example 15, (15R)-3,22,31-Trifluoro-8-(((2R,7aS)-2-fluorotetrahydro-1H-pyrrolo[1,2-a]pyrrol-7a(5H)-yl)methoxy)-27-hydroxy-15-methyl-7,9,11,16-tetraazahexacyclo[19.7.1.1˜2,6˜.1˜11,15˜.0˜5,10˜.0˜25,29˜]hentriaconta-1(28),2(31),3,5,7,9,21,23,25(29),26-decaen-17-one bis(2,2,2-trifluoroacetate)] | 8.40 | 8.52 | 6.85 | 7.72 | – | 7.10 | – | 0 |
| O=C1COCCCc2c(Cl)cc3[nH]ncc3c2-c2ncc3c(nc(OC[C@@]45CCCN4C[C@H](F)C5)nc3c2F)N2CC[C@H]3CCN1[C@H]3C2 [Example 168, (29S,33R)-18-chloro-34-fluoro-4-(((2R,7aS)-2-fluorotetrahydro-1H-pyrrolo[1,2-a]pyrrol-7a(5H)-yl)methoxy)-23-oxa-1,3,5,9,14,15,26-heptaazaheptacyclo[24.5.2.1~6,10~.0~2,7~.0~11,19~.0~12,16~.0~29,33~]tetratriaconta-2,4,6,8,10(34),11,13,16,18-nonaen-25-one] | 8.52 | 9.00 | 8.00 | 8.89 | – | 8.52 | – | 65 |
